Experimental data published in patent US20240325544A1, “CATIONIC LIPID FOR COVALENT MODIFICATION OF PEPTIDES” (PharmalN Corporation, priority 2023, published 2024).
Read-outs that look alike come from different tables or passages of the source. Marks after values point to notes of the source that are not given here. Numbered stars: 1 amine (or outer) side, 2 acyl side, 3 side chain; on linkers, the order of the positions; unused ones are H or OH. Bridge positions count the residues as written; N and C are the ends. Square brackets hold non-standard residues; d marks the D form. Peptide text beside a SMILES is read from it. * marks the point of attachment. γGlu = O=C(O)[C@H](CCC(=O)[*:2])N[*:1]; Stearoyl = CCCCCCCCCCCCCCCCCC(=O)*; Palmitoyl = CCCCCCCCCCCCCCCC(=O)*; Dab = NCC[C@H](N)C(=O)O; Dap = NC[C@H](N)C(=O)O; AEEA = NCCOCCOCC(=O)O; GABA = NCCCC(=O)O

Tests used:
[1] = Clinically observable adverse effects of cationic alkyl moieties after subcutaneous bolus in rats (Table 1); assay type: in vivo, rat; details: male, Sprague-Dawley, rat, in vivo, sc, tested at 3.0, 5.0 or 10 μmol/kg, lethargy is considered maximum tolerated bolus dose, read-out: Lethargy* in n = 3
Description: (§1) Drug administration and observation: Each rat received a subcutaneous injection of a cationic alkyl modifier (SEQ ID NO: 1-22; listed in Table 1 below) in a buffer of sterile water adjusted to a pH between 4.5-5, with an initial bolus dose of 5.0 μmol/kg and an injection volume of 1.0 mL/kg. The bolus dose level was adjusted based on observations, and animals were monitored closely for lethargy, ataxia, swelling, or discoloration during the first 4 hours post-injection and hourly thereafter. As used herein, “ataxia” means a clinical sign observed as poor muscle control that causes clumsy voluntary movements. It may cause difficulty with mobility, coordination, and eye movements. As used herein, “lethargy” means a clinical sign observed as inability or unwillingness to resume normal activity characterized by exploring and alertness. Lethargic rats are easily observed by displaying little to no activity and/or unwillingness to explore around, half closed eyes, and hunched posture. As used herein, “swelling” means a clinical sign observed as the enlargement or engorgement of body parts with blood or fluid and is associated with visible redness (discoloration). If no swelling occurred, dose level was increased to 10 μmol/kg; if swelling was present, bolus dose level was decreased to 3.0 μmol/kg. A wash-out period of 1 week was allowed between bolus doses, and animals were humanely euthanized through CO2 asphyxiation after final observation.

Sprague Dawley rats = test: as above; assay type: in vivo, rat; details: tested at 3.0, 5.0 or 10 μmol/kg; for Ataxia** in n = 3: ataxia is bolus dose limiting toxicity; for Swelling and/or Discoloration in n = 3: dose at which sign was seen
Description: as §1

[2] = Plasma concentration of respective natriuretic peptide by ELISA after SC bolus in CD-1 mice (pharmacokinetics, Table 3); details: male, CD-1, mouse, in vivo
Description: (§2) The test articles were formulated or dissolved in sterile water for injection on the same day of administration. […] Blood samples were collected via retro-orbital bleed at 2- and 6-hours post-injection, with two bleedings per animal at two different timepoints. The samples were collected in K2EDTA tubes, processed by centrifugation (2000×g; 15 m 4 eC within 30 minutes after collection), and the resulting plasma samples were stored at −80° C. Biochemical analysis: The plasma concentration of the respective natriuretic peptide was analyzed using commercially available ELISA kits from Phoenix Pharmaceuticals (Burlingame, CA): ANP ELISA (cat #EKE-005-06), BNP ELISA (cat #EKE-011-03), and CNP ELISA (cat #EKE-012-03). […] Plasma cGMP was analyzed using a commercially available kit from Abcam (ab133052, Waltham, MA).

cGMP = test: Plasma cGMP after SC bolus of natriuretic peptides in CD-1 mice (pharmacodynamics, Table 3); assay type: in vivo; details: SC bolus 1.0 mg/kg (≤0.45 μmol/kg), baseline 10 +/−8 pmol/ml, n = 3-5
Description: as §2

Compound | MTD [1] | Ataxia** in n = 3 (Sprague Dawley rats) | Swelling and/or Discoloration in n = 3 (Sprague Dawley rats) | also measured
CCCCCCCCCCCCCCCC(=O)NCCOCCOCC(=O)NCCOCCOCC(=O)NCCOCCOCC(=O)N[C@H](CCCCN)C(=O)N[C@@H](CCCCN)C(=O)O [SEQ ID NO: 1, CH3(CH2)14(C═O)-Aeea-Aeea-Aeea-kK] | ≥ 3 µmol/kg | ≥3 µmol/kg | ≥3 µmol/kg | 
CCCCCCCCCCCCCCCCCC(=O)N[C@@H](CCCCN)C(=O)N[C@@H](CCCCN)C(=O)N[C@@H](CCCCN)C(=O)N[C@@H](CCCCN)C(=O)NCC(=O)NCC(=O)NCC(=O)O [SEQ ID NO: 2, CH3(CH2)16(C═O)-KKKKGGG] (Stearoyl-KKKKGGG-OH; C-terminus assumed) | ≥ 3 µmol/kg |  | ≥3 µmol/kg | 
CCCCCCCCCCCCCCCC(=O)NCCOCCOCC(=O)NCCOCCOCC(=O)N[C@@H](CCCCN)C(=O)N[C@@H](CCCCN)C(=O)N[C@@H](CCCCN)C(=O)N[C@@H](CCCCN)C(=O)O [SEQ ID NO: 4, CH3(CH2)14(C═O)-Aeea-Aeea-KKKK] ({Palmitoyl-AEEA-AEEA}-KKKK-OH; C-terminus assumed) | ≥ 3 µmol/kg | ≥3 µmol/kg | ≥3 µmol/kg | 
CCCCCCCCCCCCCCCC(=O)NCCOCCOCC(=O)NCCOCCOCC(=O)N[C@@H](CCCCN)C(=O)N[C@@H](CCCCN)C(=O)O [SEQ ID NO: 5, CH3(CH2)14(C═O)-Aeea-Aeea-KK] | ≥ 5 µmol/kg | ≥5 µmol/kg |  | 
CCCCCCCCCCCCCCCC(=O)NCCOCCOCC(=O)NCCOCCOCC(=O)NCCOCCOCC(=O)N[C@@H](CCN)C(=O)N[C@@H](CCN)C(=O)N[C@@H](CCN)C(=O)N[C@@H](CCN)C(=O)O [SEQ ID NO: 8, CH3(CH2)14(C═O)-Aeea-Aeea-Aeea-Dab-Dab-Dab-Dab] ({Palmitoyl-AEEA-AEEA-AEEA}-[Dab][Dab][Dab][Dab]-OH; C-terminus assumed) | ≥ 3 µmol/kg | >5 µmol/kg | ≥3 µmol/kg | 
CCCCCCCCCCCCCCCC(=O)NCCOCCOCC(=O)NCCOCCOCC(=O)NCCOCCOCC(=O)N[C@@H](CCN)C(=O)N[C@@H](CCN)C(=O)N[C@@H](CCN)C(=O)O [SEQ ID NO: 9, CH3(CH2)14(C═O)-Aeea-Aeea-Aeea-Dab-Dab-Dab] ({Palmitoyl-AEEA-AEEA-AEEA}-[Dab]-[Dab]-[Dab]-OH; C-terminus assumed) | > 5 µmol/kg | >5 µmol/kg | ≥3 µmol/kg | 
CCCCCCCCCCCCCCCC(=O)NCCOCCOCC(=O)NCCOCCOCC(=O)NCCOCCOCC(=O)N[C@@H](CCN)C(=O)N[C@@H](CCN)C(=O)O [SEQ ID NO: 10, CH3(CH2)14(C═O)-Aeea-Aeea-Aeea-Dab-Dab] ({Palmitoyl-AEEA-AEEA-AEEA}-[Dab]-[Dab]-OH; C-terminus assumed) | > 10 µmol/kg | >10 µmol/kg | ≥10 µmol/kg | 
CCCCCCCCCCCCCCCC(=O)NCCCC(=O)NCCCC(=O)N[C@@H](CCN)C(=O)N[C@@H](CCN)C(=O)O [SEQ ID NO: 11, CH3(CH2)14(C═O)-γAbu-γAbu-Dab-Dab] ({Palmitoyl-GABA-GABA}-[Dab]-[Dab]-OH; C-terminus assumed) | > 10 µmol/kg | >10 µmol/kg | >10 µmol/kg | 
CCCCCCCCCCCCCCCC(=O)NCCCC(=O)NCCCC(=O)NCCCC(=O)N[C@@H](CCN)C(=O)N[C@@H](CCN)C(=O)O [SEQ ID NO: 12, CH3(CH2)14(C═O)-γAbu-γAbu-γAbu-Dab-Dab] ({Palmitoyl-GABA-GABA-GABA}-[Dab]-[Dab]-OH; C-terminus assumed) | > 10 µmol/kg | >10 µmol/kg | >10 µmol/kg | 
CCCCCCCCCCCCCCCC(=O)NCCOCCOCC(=O)NCCOCCOCC(=O)N[C@@H](CN)C(=O)N[C@@H](CCN)C(=O)O [SEQ ID NO: 13, CH3(CH2)14(C═O)-Aeea-Aeea-Dap-Dab] ({Palmitoyl-AEEA-AEEA}-[Dap]-[Dab]-OH; C-terminus assumed) | > 10 µmol/kg | >10 µmol/kg | >10 µmol/kg | 
CCCCCCCCCCCCCCCC(=O)N[C@@H](CCC(=O)NCCOCCOCC(=O)NCCOCCOCC(=O)N[C@@H](CCN)C(=O)N[C@@H](CCN)C(=O)O)C(=O)O [SEQ ID NO: 15, CH3(CH2)14(C═O)-γE-Aeea-Aeea-Dab-Dab] ({Palmitoyl-γGlu-AEEA-AEEA}-[Dab]-[Dab]-OH; C-terminus assumed) | > 10 µmol/kg | >10 µmol/kg | >10 µmol/kg | 
CCCCCCCCCCCCCCCC(=O)N[C@@H](CCC(=O)O)C(=O)NCCOCCOCC(=O)NCCOCCOCC(=O)N[C@@H](CCN)C(=O)N[C@@H](CCN)C(=O)O [SEQ ID NO: 16, CH3(CH2)14(C═O)-E-Aeea-Aeea-Dab-Dab] (Palmitoyl-E[AEEA][AEEA][Dab][Dab]-OH; C-terminus assumed) | > 10 µmol/kg | >10 µmol/kg | >10 µmol/kg | 
CCCCCCCCCCCCCCCC(=O)NCCOCCOCC(=O)NCCOCCOCC(=O)NCCOCCOCC(=O)N[C@@H](CN)C(=O)NCC(=O)N[C@@H](CC(C)C)C(=O)N[C@@H](CO)C(=O)N[C@@H](CCCCN)C(=O)NCC(=O)N[C@H]1CSSC[C@@H](C(=O)O)NC(=O)CNC(=O)[C@H](CC(C)C)NC(=O)CNC(=O)[C@H](CO)NC(=O)[C@H](CCC(N)=O)NC(=O)[C@H](CO)NC(=O)CNC(=O)[C@H]([C@@H](C)CC)NC(=O)[C@H](CCCNC(=N)N)NC(=O)[C@H](CC(=O)O)NC(=O)[C@H](CC(C)C)NC(=O)[C@H](CCCCN)NC(=O)[C@H](CC(C)C)NC(=O)CNC(=O)[C@H](Cc2ccccc2)NC1=O [SEQ ID NO: 42] ({Palmitoyl-AEEA-AEEA-AEEA}-[Dap]GLSKGCFGLKLDRIGSQSGLGC-OH; disulfide 7-23; C-terminus assumed) |  |  |  | level at 2 h ([2]; sc, 1 mg/kg): 26.1 ng/mL; level at 6 h ([2]; sc, 1 mg/kg): 25 ng/mL; Plasma concentration of cGMP, 2 hr (cGMP): 110.21*** pmol/mL; Plasma concentration of cGMP, 6 hr (cGMP): 46.90** pmol/mL
CCCCCCCCCCCCCCCC(=O)NCCOCCOCC(=O)NCCOCCOCC(=O)NCCOCCOCC(=O)N[C@@H](CN)C(=O)N[C@@H](CN)C(=O)N[C@@H](CN)C(=O)NCC(=O)N[C@@H](CC(C)C)C(=O)N[C@@H](CO)C(=O)N[C@@H](CCCCN)C(=O)NCC(=O)N[C@H]1CSSC[C@@H](C(=O)O)NC(=O)CNC(=O)[C@H](CC(C)C)NC(=O)CNC(=O)[C@H](CO)NC(=O)[C@H](CCC(N)=O)NC(=O)[C@H](CO)NC(=O)CNC(=O)[C@H]([C@@H](C)CC)NC(=O)[C@H](CCCNC(=N)N)NC(=O)[C@H](CC(=O)O)NC(=O)[C@H](CC(C)C)NC(=O)[C@H](CCCCN)NC(=O)[C@H](CC(C)C)NC(=O)CNC(=O)[C@H](Cc2ccccc2)NC1=O [SEQ ID NO: 43] ({Palmitoyl-AEEA-AEEA-AEEA}-[Dap][Dap][Dap]GLSKGCFGLKLDRIGSQSGLGC-OH; disulfide 9-25; C-terminus assumed) |  |  |  | level at 2 h ([2]; sc, 1 mg/kg): 29.2 ng/mL; level at 6 h ([2]; sc, 1 mg/kg): 16.8 ng/mL; Plasma concentration of cGMP, 2 hr (cGMP): 114.85**** pmol/mL; Plasma concentration of cGMP, 6 hr (cGMP): 93.39**** pmol/mL
CC[C@H](C)[C@@H]1NC(=O)[C@H](CCCNC(=N)N)NC(=O)[C@H](CC(=O)O)NC(=O)[C@H](CCSC)NC(=O)[C@H](CCCCN)NC(=O)[C@H](CCCNC(=N)N)NC(=O)CNC(=O)[C@H](Cc2ccccc2)NC(=O)[C@@H](NC(=O)CNC(=O)[C@H](CO)NC(=O)CNC(=O)[C@H](CCC(N)=O)NC(=O)[C@@H](NC(=O)[C@H](CCSC)NC(=O)[C@H](CCCCN)NC(=O)[C@@H]2CCCN2C(=O)[C@@H](N)CO)C(C)C)CSSC[C@@H](C(=O)N[C@@H](CCCCN)C(=O)N[C@H](C(=O)N[C@@H](CC(C)C)C(=O)N[C@@H](CCCNC(=N)N)C(=O)N[C@@H](CCCNC(=N)N)C(=O)N[C@@H](Cc2c[nH]cn2)C(=O)O)C(C)C)NC(=O)CNC(=O)[C@H](CC(C)C)NC(=O)CNC(=O)[C@H](CO)NC(=O)[C@H](CO)NC(=O)[C@H](CO)NC(=O)[C@H](CO)NC1=O [SEQ ID NO: 48, reference compound] |  |  |  | level at 2 h ([2]; mice, SC bolus 1.0 mg/kg (≤0.45 μmol/kg), 2 hr, ELISA, n = 3-5, read-out: Plasma concentration of respective Natriuretic Peptide, ANP, BNP, or CNP, 2 hr): 23.3 ng/mL; level at 6 h ([2]; mice, SC bolus 1.0 mg/kg (≤0.45 μmol/kg), 6 hr, ELISA, n = 3-5, read-out: Plasma concentration of respective Natriuretic Peptide, ANP, BNP, or CNP, 6 hr): 30.6 ng/mL; Plasma concentration of cGMP, 2 hr (cGMP): 10.57 pmol/mL; Plasma concentration of cGMP, 6 hr (cGMP): 8.48 pmol/mL
